Experiments:
Assay type in all cases: functional
[1] = system: MCF7; assay: Cytotoxicity against human MCF7 cells assessed as cell viability at 2 uM after 48 hrs by MTT assay
[2] = system: MCF7; assay: Cytotoxicity against human MCF7 cells assessed as cell viability at 4 uM after 48 hrs by MTT assay
[3] = system: MCF7; assay: Cell cycle arrest in human MCF7 cells assessed as accumulation at G1 phase at 4 uM after 24 hrs using propidium iodide staining by FACS analysis (reference value: 70%)
[4] = system: MCF7; assay: Cell cycle arrest in human MCF7 cells assessed as accumulation at G2/M phase at 4 uM after 24 hrs using propidium iodide staining by FACS analysis (reference value: 19%)
[5] = system: MCF7; assay: Cell cycle arrest in human MCF7 cells assessed as accumulation at S phase at 4 uM after 24 hrs using propidium iodide staining by FACS analysis (reference value: 11%)

Compound | OD [1] | OD [2] | Activity [3] | Activity [4] | Activity [5]
COc1ccc(/C=C/c2nc3ccccc3c(=O)n2-c2ccc(C#Cc3ccccc3)cc2C)cc1 | 0.84 | 0.73 | 78% | 15% | 7%
COc1ccc2cc(C#Cc3ccc(-n4c(/C=C/c5ccc(OC)c(OC)c5)nc5ccccc5c4=O)c(C)c3)ccc2c1 | 0.7 | 0.6 | 70% | 23% | 7%
COc1cc(/C=C/c2nc3ccccc3c(=O)n2-c2ccc(C#Cc3ccc(C(C)(C)C)cc3)cc2C)cc(OC)c1OC | 0.74 | 0.55 | 14% | 78% | 8%
Cc1ccccc1/C=C/c1nc2ccccc2c(=O)n1-c1ccc(C#Cc2ccccc2)cc1C | 0.78 | 0.51 | 88% | 6% | 6%
COc1cc(/C=C/c2nc3ccccc3c(=O)n2-c2ccc(C#Cc3ccccc3)cc2C)cc(OC)c1 | 0.93 | 0.61 | 73% | 19% | 8%
Cc1cc(C#Cc2ccc(C(C)(C)C)cc2)ccc1-n1c(/C=C/c2cc(O)cc(O)c2)nc2ccccc2c1=O | 0.6 | 0.43 | 74% | 18% | 8%
Cc1cc(C#Cc2ccccc2)ccc1-n1c(/C=C/c2ccc(O)cc2)nc2ccccc2c1=O | 0.87 | 0.58 | 75% | 18% | 7%
Cc1cc(C#Cc2ccc(C(C)(C)C)cc2)ccc1-n1c(/C=C/c2ccc3c(c2)OCO3)nc2ccccc2c1=O | 0.67 | 0.52 | 67% | 23% | 10%
Cc1cc(C#Cc2ccc(C(C)(C)C)cc2)ccc1-n1c(/C=C/c2ccc([N+](=O)[O-])s2)nc2ccccc2c1=O | 0.54 | 0.25 | 68% | 24% | 8%
Cc1cc(C#Cc2ccc(C(C)(C)C)cc2)ccc1-n1c(/C=C/c2ccc(Cl)cc2)nc2ccccc2c1=O | 0.71 | 0.59 |  |  | 
Cc1cc(C#Cc2ccccc2)ccc1-n1c(/C=C/c2ccc3ccccc3c2)nc2ccccc2c1=O | 0.97 | 0.43 | 68% | 24% | 8%
Cc1cc(C#Cc2ccccc2)ccc1-n1c(/C=C/c2ccc([N+](=O)[O-])o2)nc2ccccc2c1=O | 0.88 | 0.37 |  |  | 
Cc1cc(C#Cc2ccccc2)ccc1-n1c(/C=C/c2ccc(O)c([N+](=O)[O-])c2)nc2ccccc2c1=O | 0.9 | 0.51 | 73% | 20% | 7%
COc1ccc2cc(C#Cc3ccc(-n4c(/C=C/c5ccc([N+](=O)[O-])o5)nc5ccccc5c4=O)c(C)c3)ccc2c1 | 0.66 | 0.58 | 49% | 39% | 12%
Cc1cc(C#Cc2ccc(C(C)(C)C)cc2)ccc1-n1c(/C=C/c2ccc(O)cc2)nc2ccccc2c1=O | 0.71 | 0.52 | 74% | 19% | 7%
COc1ccc2cc(C#Cc3ccc(-n4c(/C=C/c5cc(OC)c(OC)c(OC)c5)nc5ccccc5c4=O)c(C)c3)ccc2c1 | 0.57 | 0.58 | 72% | 21% | 7%
Cc1cc(C#Cc2ccccc2)ccc1-n1c(/C=C/c2ccc(F)cc2)nc2ccccc2c1=O | 0.75 | 0.61 | 73% | 20% | 7%
